In patent US12497365B2, “4-pyridinyl formamide compound or derivative thereof, preparation method therefor, herbicidal composition and use thereof” (Qingdao Kingagroot Chemical Compound Co., Ltd., priority 2019, dated 2025):

How the values were obtained:
Assay in all cases: Weeding effect in post-emergence stage
Type in all cases: in vivo
Settings in all cases: active ingredient 2000 g/ha, 3 weeks after application, fresh weight control rate
Chenopodium album = tested on: Chenopodium album
Excerpt: (§1) The activity level criteria for plant damage (i.e., growth control rate) are as follows:
(§2) The above growth control rates are fresh weight control rates.
(§3) Experiment on weeding effect in post-emergence stage: monocotyledonous and dicotyledonous weed seeds and major crop seeds (wheat, corn, rice, soybean, cotton, oilseed rape, millet, sorghum) were placed in plastic pots filled with soil, then covered with 0.5-2 cm of soil, allowed to grow in a good greenhouse environment. After 2 weeks of sowing, the test plants were treated in the 2-3 leaf stage. The tested compounds of the present invention were respectively dissolved in acetone at the dosage of 2000, 1000, 500, 250, 125 g/ha, then added with Tween 80 and 1.5 liter/ha of emulsifiable concentrate of methyl oleate as synergist, diluted with a certain amount of water to obtain a solution with a certain concentration, and sprayed with a spray tower onto the plants. After the application, the plants were cultured for 3 weeks in the greenhouse, and then the experimental results were listed in Table 1.

Descurainia sophia = tested on: Descurainia sophia
Excerpt: as §1, §2, §3

Abutilon theophrasti = tested on: Abutilon theophrasti
Excerpt: as §1, §2, §3

[1] = tested on: Amaranthus retroflexus L.
Excerpt: as §1, §2, §3

Structure (SMILES)	Weeding effect, activity level (growth control rate), Chenopodium album (Chenopodium album)	Weeding effect, activity level (growth control rate), Descurainia sophia (Descurainia sophia)	Weeding effect, activity level (growth control rate), Abutilon theophrasti (Abutilon theophrasti)	Weeding effect, activity level (growth control rate), Amaranthus retroflexus L. [1]
Cn1nnnc1NC(=O)c1ccnc(-c2ccc(C#N)cc2)c1Cl [Compound 1-50]	5 (Level 5: growth control rate is above 85%)	5 (Level 5: growth control rate is above 85%)	5 (Level 5: growth control rate is above 85%)	5 (Level 5: growth control rate is above 85%)
COc1cccc(F)c1-c1nccc(C(=O)Nc2nnnn2C)c1Cl [Compound 1-70]	5 (Level 5: growth control rate is above 85%)	5 (Level 5: growth control rate is above 85%)	5 (Level 5: growth control rate is above 85%)	5 (Level 5: growth control rate is above 85%)
Cn1nnnc1NC(=O)c1ccnc(-c2cncc(F)c2)c1Cl [Compound 1-128]	5 (Level 5: growth control rate is above 85%)	5 (Level 5: growth control rate is above 85%)	5 (Level 5: growth control rate is above 85%)	5 (Level 5: growth control rate is above 85%)
Cn1nnnc1NC(=O)c1ccnc(-c2ccc(C=O)o2)c1Cl [Compound 1-185]	5 (Level 5: growth control rate is above 85%)	5 (Level 5: growth control rate is above 85%)	5 (Level 5: growth control rate is above 85%)	5 (Level 5: growth control rate is above 85%)
Cn1nnnc1NC(=O)c1ccnc(-c2ccc(Cl)nc2Cl)c1Cl [Compound 1-139]	5 (Level 5: growth control rate is above 85%)	5 (Level 5: growth control rate is above 85%)	5 (Level 5: growth control rate is above 85%)	5 (Level 5: growth control rate is above 85%)
Cn1nnnc1NC(=O)c1ccnc(-c2ccc(F)c(Cl)c2)c1Cl [Compound 1-92]	5 (Level 5: growth control rate is above 85%)	5 (Level 5: growth control rate is above 85%)	5 (Level 5: growth control rate is above 85%)	5 (Level 5: growth control rate is above 85%)
Cn1nnnc1NC(=O)c1ccnc(-c2ccc(OCc3ccccc3)cc2F)c1Cl [Compound 1-106]	5 (Level 5: growth control rate is above 85%)	5 (Level 5: growth control rate is above 85%)	5 (Level 5: growth control rate is above 85%)	5 (Level 5: growth control rate is above 85%)
Cn1nnnc1NC(=O)c1ccnc(-c2ccc(S(=O)(=O)N3CCOCC3)cc2)c1Cl [Compound 1-46]	5 (Level 5: growth control rate is above 85%)	5 (Level 5: growth control rate is above 85%)	5 (Level 5: growth control rate is above 85%)	5 (Level 5: growth control rate is above 85%)
Cn1nnnc1NC(=O)c1ccnc(-c2ccc(N3CCOCC3)nc2)c1Cl [Compound 1-146]	5 (Level 5: growth control rate is above 85%)	5 (Level 5: growth control rate is above 85%)	5 (Level 5: growth control rate is above 85%)	5 (Level 5: growth control rate is above 85%)
Cn1nnnc1NC(=O)c1ccnc(-c2ccc(F)nc2F)c1Cl [Compound 1-135]	5 (Level 5: growth control rate is above 85%)	5 (Level 5: growth control rate is above 85%)	5 (Level 5: growth control rate is above 85%)	5 (Level 5: growth control rate is above 85%)
CCn1nnnc1NC(=O)c1ccnc(-c2ccc(F)cc2)c1Cl [Compound 1-307]	5 (Level 5: growth control rate is above 85%)	5 (Level 5: growth control rate is above 85%)	5 (Level 5: growth control rate is above 85%)	5 (Level 5: growth control rate is above 85%)
Cn1nnnc1NC(=O)c1ccnc(-c2ncc(C#N)cn2)c1Cl [Compound 1-163]	5 (Level 5: growth control rate is above 85%)	5 (Level 5: growth control rate is above 85%)	5 (Level 5: growth control rate is above 85%)	5 (Level 5: growth control rate is above 85%)
Cn1nnnc1NC(=O)c1ccnc(-c2ccncc2)c1Cl [Compound 1-147]	5 (Level 5: growth control rate is above 85%)	5 (Level 5: growth control rate is above 85%)	5 (Level 5: growth control rate is above 85%)	5 (Level 5: growth control rate is above 85%)
CCn1cc(-c2nccc(C(=O)Nc3nnnn3C)c2Cl)cn1 [Compound 1-172]	5 (Level 5: growth control rate is above 85%)	5 (Level 5: growth control rate is above 85%)	5 (Level 5: growth control rate is above 85%)	5 (Level 5: growth control rate is above 85%)
Cn1nnnc1NC(=O)c1ccnc(-c2cncc(N)c2)c1Cl [Compound 1-145]	5 (Level 5: growth control rate is above 85%)	5 (Level 5: growth control rate is above 85%)	5 (Level 5: growth control rate is above 85%)	5 (Level 5: growth control rate is above 85%)
COc1cccc(-c2nccc(C(=O)Nc3nnnn3C)c2Cl)c1 [Compound 1-29]	5 (Level 5: growth control rate is above 85%)	5 (Level 5: growth control rate is above 85%)	5 (Level 5: growth control rate is above 85%)	5 (Level 5: growth control rate is above 85%)
Cn1nnnc1NC(=O)c1ccnc(-c2ccccc2Cl)c1Cl [Compound 1-18]	5 (Level 5: growth control rate is above 85%)	5 (Level 5: growth control rate is above 85%)	5 (Level 5: growth control rate is above 85%)	5 (Level 5: growth control rate is above 85%)
Cn1nnnc1NC(=O)c1ccnc(-c2cc(F)cc(C#N)c2)c1Cl [Compound 1-81]	5 (Level 5: growth control rate is above 85%)	5 (Level 5: growth control rate is above 85%)	5 (Level 5: growth control rate is above 85%)	5 (Level 5: growth control rate is above 85%)
Cn1nnnc1NC(=O)c1ccnc(-c2ccoc2)c1Cl [Compound 1-183]	5 (Level 5: growth control rate is above 85%)	5 (Level 5: growth control rate is above 85%)	5 (Level 5: growth control rate is above 85%)	5 (Level 5: growth control rate is above 85%)
Cc1csc(-c2nccc(C(=O)Nc3nnnn3C)c2Cl)c1 [Compound 1-188]	5 (Level 5: growth control rate is above 85%)	5 (Level 5: growth control rate is above 85%)	5 (Level 5: growth control rate is above 85%)	5 (Level 5: growth control rate is above 85%)
O=C(Nc1ccon1)c1ccnc(-c2ccc(F)cc2)c1Cl [Compound 1-1286]	5 (Level 5: growth control rate is above 85%)	5 (Level 5: growth control rate is above 85%)	5 (Level 5: growth control rate is above 85%)	5 (Level 5: growth control rate is above 85%)
